The nature of data set [1]: HPLC assay for profiling solution reactivity and stability of purine adduct fragments. Format: physicochemical. The procedure:
HPLC assay for profiling solution reactivity and stability of purine adduct fragments: The following reagents were prepared and stored on ice prior to use. 0.1 M solution of caffeine in acetonitrile, 1.0 M solution of amino acid mimetic (butanethiol, n-butylamine, p-cresol, propionamide and butyric acid), tetramethylguanidine (TMG), 1 M HOAc in ACN and 10 mM solution of purine fragment (e.g., one of the purine adducts shown in Scheme 8, above) in ACN mixture. 500 μL of fragment solution (i.e. purified Pa-1 through Pa-6) were transferred to a dram vial on ice. To the mixture, 5.5 μL of TMG and 5.5 μL of respective amino acid mimetic were added and solutions were stirred on ice for 6 h. To monitor reactivity, 50 μL aliquots were removed at indicated time points and quenched with 10 μL of a 1:1 mixture of caffeine and HOAc. Samples were injected (1 μL) and analyzed by reverse-phase HPLC on a Shimadzu 1100 Series spectrometer with UV detection at 254 nm. Reaction progress was evaluated by monitoring consumption of starting material (purine fragment) normalized to caffeine standard. Chromatographic separation was performed using a Phenomenex Kinetex C18 column (2.6 μm, 50×4.6 mm). Mobile phases A and B were composed of H2O+0.1% HOAc and ACN+0.1% HOAc, respectively. […] All purine fragment peak AUCs used for calculations were normalized to caffeine standard AUCs at respective time points to account for run-to-run variations by HPLC. The amount of purine fragment consumed (% starting material) was plotted as a function of time.

In data set [2] the target is T1, human eEF-Sec (Uniprot ID P57772) (Homo sapiens, UniProt P57772).
T1 construct: FLAG; expressed in transfected cells; host or cells: HEK293T
T1 sequence (P57772 1-596): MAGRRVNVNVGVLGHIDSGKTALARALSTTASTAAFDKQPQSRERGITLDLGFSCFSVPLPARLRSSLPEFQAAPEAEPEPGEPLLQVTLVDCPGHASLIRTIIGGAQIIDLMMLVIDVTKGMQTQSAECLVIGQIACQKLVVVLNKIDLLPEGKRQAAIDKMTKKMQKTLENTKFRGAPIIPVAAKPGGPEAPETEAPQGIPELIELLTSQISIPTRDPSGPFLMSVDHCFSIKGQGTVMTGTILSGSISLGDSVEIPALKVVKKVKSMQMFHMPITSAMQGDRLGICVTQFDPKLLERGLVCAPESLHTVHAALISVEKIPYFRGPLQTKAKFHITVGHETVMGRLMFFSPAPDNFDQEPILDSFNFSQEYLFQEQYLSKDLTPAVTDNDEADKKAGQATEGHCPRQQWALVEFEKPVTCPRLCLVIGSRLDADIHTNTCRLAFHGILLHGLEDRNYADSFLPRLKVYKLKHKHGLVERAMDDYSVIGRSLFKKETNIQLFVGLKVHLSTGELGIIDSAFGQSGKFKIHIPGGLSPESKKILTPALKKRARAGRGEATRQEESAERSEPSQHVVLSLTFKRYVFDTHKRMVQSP
Put plainly: Competition assay: purine ligands block AHL-Pu-1 probe labeling of eEF-Sec. The settings on record: for block of AHL-Pu-1 probe labeling of eEF-Sec (FIG. 10E) / block of AHL-Pu-1 probe labeling of eEF-Sec (FIG. 10D): ligand 4 hr, AHL-Pu-1 25 μM 1 hr; for block of AHL-Pu-1 probe labeling of eEF-Sec (FIG. 10E): 0.05 to 25 μM; for block of AHL-Pu-1 probe labeling of eEF-Sec (FIG. 10E) / block of AHL-Pu-1 probe labeling of eEF-Sec (FIG. 10D) / block of AHL-Pu-1 probe labeling of eEF-Sec: live cells; for block of AHL-Pu-1 probe labeling of eEF-Sec (FIG. 10D): 0.5 to 25 μM; for inhibition of eEF-Sec probe labeling: 10 μM ligand; for block of AHL-Pu-1 probe labeling of eEF-Sec: ligand 10 μM, AHL-Pu-1 25 μM. In kind it is cell-based. The procedure:
FIG. 8 is a schematic diagram showing the workflow of a fluorescent gel-based competition assay using an activity-based probe (ABP) of the presently disclosed subject matter and a competitive inhibitor.
Methods: HEK293T cells were grown at 37° C. in 5% CO2 until 40% confluent. Recombinant human eEF-Sec (Uniprot ID P57772) was expressed by transient transfection for 48 hours. […] Lysates were spun at 100,000×g for 45 minutes. […] Purine probe modified proteins were conjugated to rhodamine-azide by CuAAC, subjected to SDS-PAGE analysis, and detected by in-gel fluorescence scanning. Comparison of non-transfected (Mock) and transfected proteomes was used to identify the recombinant eEF-Sec purine probe-labeled band. […] Reduction in fluorescent signals from purine probe labeling was indicative of Pi ligand inhibitory activity. Mut represents eEF-Sec mutant where cysteine residue 442 is mutated to alanine (C442A).

For another data set, the system named is DM93 cells. Nature of the data set: Live cell activity of purine probes, gel-based (CuAAC rhodamine-azide, in-gel fluorescence). As to conditions: for reactivity of N7 versus N9 tautomers / probe labeling compared to Pu-5 and Pu-6: live DM93 cells; for probe labeling compared to Pu-5 and Pu-6: 6-chloro versus 2-chloro; for labeling profile in live cells: DM93 cells, 25 μM, 4 hours. The procedure: Live Cell Activity Method: DM93 cells were grown at 37° C. in 5% CO2 until 90% confluent. Once confluent cells were washed with serum free media and treated with halogenated purine probes at a final concentration of 25 μM (unless stated) for 4 hours (unless stated). Cells were then scraped and washed 3× with cold PBS and lysed in PBS+protease inhibitor. Lysates were spun at 100,000×g for 45 minutes. Halogen probe-modified proteins in soluble fractions were visualized by conjugating rhodamine-azide using copper-catalyzed azide-alkyne cycloaddition (CuAAC; 1 hour, room temperature), subjected to SDS-PAGE, and detected by in-gel fluorescence scanning. SDS-PAGE gels were also stained with Coomassie brilliant blue to determine protein load. All samples were loaded with equivalent amounts of protein. Thus, changes in purine probe labeling is not due to loading of different proteome amounts.

A short description of data set [3]: HPLC assay for profiling solution reactivity and stability of purine fragments (probes) with amino acid mimetics. As to conditions: for effect of position of the halogen leaving group on reactivity: 6 position versus 2 position (Pu-3 versus Pu-5, Pu-4 versus Pu-6); for reaction kinetics compared to N9 counterparts / effect of amine group at the 2 position on electrophilic character / adducts formed, based on HPLC traces: butanethiol; for reaction kinetics compared to N9 counterparts: versus Pu-2, Pu-4, Pu-10; for reaction with butanethiol: cysteine mimetic, on ice 6 h. Format: physicochemical. The procedure: HPLC assay for profiling solution reactivity and stability of purine fragments: The following reagents were prepared and stored on ice prior to use. 0.1 molar (M) solution of caffeine in acetonitrile, 1.0 M solution of amino acid mimetic (butanethiol—cysteine mimetic; n-butylamine—lysine mimetic; p-cresol—tyrosine mimetic; propionamide-asparagine/glutamine mimetic; butyric acid—aspartic/glutamic acid mimetic), tetramethylguanidine (TMG), 1 M acetic acid (HOAc) in acetonitrile (ACN) and 10 mM solution of purine fragment in ACN mixture. 500 μL of fragment solution were transferred to a dram vial on ice. To the mixture, 5.5 μL of TMG and 5.5 μL of respective amino acid mimetic were added and solutions were stirred on ice for 6 h. To monitor reactivity, 50 μL aliquots were removed at indicated time points and quenched with 10 μL of a 1:1 mixture of caffeine and HOAc. Samples were injected (1 μL) and analyzed by reverse-phase HPLC on a Shimadzu 1100 Series spectrometer (Shimadzu Corporation, Kyoto, Japan) with UV detection at 254 nm. Reaction progress was evaluated by monitoring consumption of starting material (purine fragment) normalized to caffeine standard. Chromatographic separation was performed using a Phenomenex Kinetex C18 column (2.6 μm, 50×4.6 mm; Phenomenex, Torrance, Calif., United States of America). Mobile phases A and B were composed of H2O+0.1% HOAc and ACN+0.1% HOAc, respectively. […] All purine fragment peak AUCs used for calculations were normalized to caffeine standard AUCs at respective time points to account for run-to-run variations by HPLC. The amount of purine fragment consumed (% starting material) was plotted as a function of time.
Discussion: An HPLC assay for determining the reactivity of the purine-based probes with mimetics of amino acid residues was performed. […] Reaction progress was monitored by monitoring the disappearance of starting material and appearance of product via HPLC.

Data set [4] concerns DM93 cells lysates (soluble fractions). Nature of the data set: Lysate activity of purine probes, gel-based (in-gel fluorescence). Format: biochemical. The settings on record: for reactivity of N7 versus N9 tautomers / labeling compared to AHL-Pu-5 and AHL-Pu-6: lysates; for labeling compared to AHL-Pu-5 and AHL-Pu-6: 6-chloro versus 2-chloro; for protein labeling activity in lysates: DM93 soluble fractions, 25 μM, 2 hrs, 37° C. As for the experimental part:
Lysate Activity Method: DM93 cells were grown at 37° C. in 5% CO2 until 90% confluent. Once confluent, cells were scraped and washed 3× times with cold PBS and lysed in PBS+protease inhibitor. Lysates were spun at 100,000×g for 45 minutes. Soluble fractions were treated with 25 μM of halogenated purine probes (unless stated) for 2 hrs (unless stated) at 37° C. Purine probe modified proteins were conjugated to rhodamine-azide by CuAAC, subjected to SDS-PAGE analysis, and detected by in-gel fluorescence scanning. SDS-PAGE gels were stained with Coomassie brilliant blue to determine protein load.

The structures appear in SMILES notation.

As to `C#CCn1cnc2nc(Cl)nc(SCCCC)c21` [Pa-1, 6-(Butylthio)-2-chloro-7-(prop-2-yn-1-yl)-7H-purine], the “reactivity with butanethiol or p-cresol” value in data set [1] (on ice 6 h) is listed as “little reactivity”.
For `C#CCn1cnc2c(Cl)nc(SCCCC)nc21` [Pa-3, 2-(butylthio)-6-chloro-9-(prop-2-yn-1-yl)-9H-purine], the preference between nucleophiles entry in data set [1] (butanethiol versus p-cresol) is listed as “preference for butanethiol”. Besides, the reactivity with nucleophiles result in data set [1] (on ice 6 h) is recorded as “mild reactivity”.
In the case of `C#CCn1cnc2c(SCCCC)nc(Cl)nc21` [Pa-4, 6-(butylthio)-2-chloro-9-(prop-2-yn-1-yl)-9H-purine], the “reactivity against nucleophiles, N9 versus N7 tautomer” value in data set [1] (Pa-4 versus Pa-1, butanethiol) is listed as “appears to be more reactive against nucleophiles”. The “reactivity of 2-halogen, 6-substituted versus 6-halogen, 2-substituted” value in data set [1] (Pa-4 versus Pa-3, butanethiol) is “higher reactivity”. Moreover, the reactivity with nucleophiles result in data set [1] (on ice 6 h) is recorded as “mild reactivity”.
In the case of `Clc1nc(Cl)c2c(ncn2Cc2ccccc2)n1` [Pi-1, 2,6-dichloro-7-benzyl-7H-purine], in data set [2], the “block of AHL-Pu-1 probe labeling of eEF-Sec (FIG. 10E)” value is on record as “in a concentration dependent manner” and the “block of AHL-Pu-1 probe labeling of eEF-Sec (FIG. 10D)” value (shortened to “block … (FIG. 10D)”) is listed as “in a concentration dependent manner”.
For `O=[N+]([O-])c1ccc(Cn2cnc3nc(Cl)nc(Cl)c32)cc1` [Pi-5, 2,6-Dichloro-7-(4-nitrobenzyl)-7H-purine], in data set [2], the “inhibition of eEF-Sec probe labeling” value is on record as “greater than 50%”; the “block of AHL-Pu-1 probe labeling of eEF-Sec” value is “block AHL-Pu-1 probe labeling (25 μM) in a time dependent and concentration dependent manner”; the “block of AHL-Pu-1 probe labeling of eEF-Sec (FIG. 10E)” value was “in a concentration dependent manner”; the “block … (FIG. 10D)” value is recorded as “in a concentration dependent manner”.
With `O=[N+]([O-])c1ccc(Cn2cnc3c(Cl)nc(Cl)nc32)cc1` [Pi-6, 2,6-Dichloro-9-(4-nitrobenzyl)-9H-purine], the “inhibition of eEF-Sec probe labeling” value in data set [2] is on record as “loses all apparent activity”.
On to `O=S(=O)(N1CCOCC1)n1cnc2c(Cl)nc(Cl)nc21` [Pi-8, 4-((2,6-Dichloro-9H-purin-9-yl)sulfonyl)morpholine], for which, in data set [2], the “block of AHL-Pu-1 probe labeling of eEF-Sec” value is “block AHL-Pu-1 probe labeling (25 μM) in a time dependent and concentration dependent manner”; the “block … (FIG. 10D)” value is “in a concentration dependent manner”.
Take `C#CCn1cnc2ncnc(Cl)c21` [Pu-3, 6-Chloro-7-(prop-2-yn-1-yl)-7H-purine]: in the data set with DM93 cells, the “reactivity of N7 versus N9 tautomers” value is “more reactive”; the “probe labeling compared to Pu-5 and Pu-6” value was “Enhanced probe labeling”. Besides, in data set [3], the “effect of position of the halogen leaving group on reactivity” value was “the 6 position enhances reactivity”, the “reaction kinetics compared to N9 counterparts” value is “accelerated reaction kinetics” and the reaction with butanethiol entry is “react with butanethiol”. In data set [4], the “reactivity of N7 versus N9 tautomers” value is reported as “more reactive”; the “labeling compared to AHL-Pu-5 and AHL-Pu-6” value is recorded as “Increased labeling”.
As for `C#CCn1cnc2c(Cl)ncnc21` [Pu-4, 6-Chloro-9-(prop-2-yn-1-yl)-9H-purine], the “probe labeling compared to Pu-5 and Pu-6” value in the data set on DM93 cells was “Enhanced probe labeling”. Moreover, in data set [3], the “effect of position of the halogen leaving group on reactivity” value is “the 6 position enhances reactivity”. In addition, in data set [4], the “labeling compared to AHL-Pu-5 and AHL-Pu-6” value is reported as “Increased labeling”.
Consider `C#CCn1cnc2nc(N)nc(Cl)c21` [Pu-7, 6-chloro-2-amino-7-(prop-2-yn-1-yl)-7H-purine], for which the “effect of amine group at the 2 position on electrophilic character” value in data set [3] is “dramatically reduces the electrophilic character”.
On to `C#CCn1cnc2c(Cl)nc(N)nc21` [Pu-8, 2-Amino-6-chloro-9-(prop-2-yn-1-yl)-9H-purine], for which the “effect of amine group at the 2 position on electrophilic character” value in data set [3] is listed as “dramatically reduces the electrophilic character”.
For the compound `C#CCn1cnc2nc(F)nc(Cl)c21` [Pu-9, 6-chloro-2-fluoro-7-(prop-2-yn-1-yl)-7H-purine], in the data set with DM93 cells, the “labeling profile in live cells” value was “robust labeling profiles” and the “reactivity of N7 versus N9 tautomers” value is given as “more reactive”. Moreover, in data set [3], the “adducts formed, based on HPLC traces” value is “likely form many different adducts”; the “reaction kinetics compared to N9 counterparts” value is given as “accelerated reaction kinetics”; the reaction with butanethiol entry is “react with butanethiol”. In data set [4], the “protein labeling activity in lysates” value is “highest protein labeling activity” and the “reactivity of N7 versus N9 tautomers” value was “more reactive”.
With `C#CCn1cnc2c(Cl)nc(F)nc21` [Pu-10, 6-chloro-2-fluoro-9-(prop-2-yn-1-yl)-9H-purine], the “labeling profile in live cells” value in the data set on DM93 cells was “robust labeling profiles”. Further, in data set [3], the “adducts formed, based on HPLC traces” value is on record as “likely form many different adducts” and the reaction with butanethiol entry was “react with butanethiol”. In addition, in data set [4], the “protein labeling activity in lysates” value is on record as “highest protein labeling activity”.
